Source: patent US10669272B2, “Substituted naphthyridinone compounds useful as T cell activators” (BRISTOL-MYERS SQUIBB COMPANY, priority 2018, dated 2020)
Like-named read-outs stand apart in the source and are kept apart here.

Key:
human DGKα = molecular target: T1, human DGKα (Homo sapiens, UniProt P23743); assay: DGKα LIPGLO assay (extruded liposome substrate), in vitro DGK inhibition; assay type: biochemical; settings: read-out: DGKa LIPGLO IC50
T1 construct: TVMV protease cleavage site (C); Hexa-His (C); made in house; host or cells: Sf9 insect cells (baculovirus, Bac-to-Bac)
T1 sequence (P23743 with tags, fused parts or gaps): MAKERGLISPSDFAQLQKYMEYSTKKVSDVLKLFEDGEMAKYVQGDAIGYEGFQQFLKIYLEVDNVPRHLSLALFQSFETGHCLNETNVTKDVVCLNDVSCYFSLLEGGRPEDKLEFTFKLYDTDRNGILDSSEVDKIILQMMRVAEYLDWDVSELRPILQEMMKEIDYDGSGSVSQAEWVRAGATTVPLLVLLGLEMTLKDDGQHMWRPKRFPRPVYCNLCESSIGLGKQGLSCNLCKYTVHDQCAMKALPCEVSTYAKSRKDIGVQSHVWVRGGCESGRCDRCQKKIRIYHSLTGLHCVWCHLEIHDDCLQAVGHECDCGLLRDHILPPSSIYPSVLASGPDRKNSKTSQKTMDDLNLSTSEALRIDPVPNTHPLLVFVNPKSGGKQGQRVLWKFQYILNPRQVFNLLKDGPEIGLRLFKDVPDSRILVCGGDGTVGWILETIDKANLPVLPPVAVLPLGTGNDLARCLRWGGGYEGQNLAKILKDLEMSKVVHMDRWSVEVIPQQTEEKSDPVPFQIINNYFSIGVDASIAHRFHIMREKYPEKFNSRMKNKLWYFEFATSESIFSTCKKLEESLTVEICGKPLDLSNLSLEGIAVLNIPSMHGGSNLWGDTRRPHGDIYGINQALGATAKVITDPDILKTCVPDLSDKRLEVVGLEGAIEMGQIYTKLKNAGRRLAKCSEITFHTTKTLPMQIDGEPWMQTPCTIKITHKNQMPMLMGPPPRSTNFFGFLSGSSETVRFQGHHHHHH

human DGKζ = molecular target: T2, human DGKζ (Homo sapiens, UniProt Q13574); assay: DGKζ LIPGLO assay (extruded liposome substrate), in vitro DGK inhibition; assay type: biochemical; settings: read-out: DGKz LIPGLO IC50
T2 construct: TVMV protease cleavage site (C); Hexa-His (C); made in house; host or cells: Sf9 insect cells (baculovirus, Bac-to-Bac)
T2 sequence (Q13574 with tags, fused parts or gaps isoform Q13574-4): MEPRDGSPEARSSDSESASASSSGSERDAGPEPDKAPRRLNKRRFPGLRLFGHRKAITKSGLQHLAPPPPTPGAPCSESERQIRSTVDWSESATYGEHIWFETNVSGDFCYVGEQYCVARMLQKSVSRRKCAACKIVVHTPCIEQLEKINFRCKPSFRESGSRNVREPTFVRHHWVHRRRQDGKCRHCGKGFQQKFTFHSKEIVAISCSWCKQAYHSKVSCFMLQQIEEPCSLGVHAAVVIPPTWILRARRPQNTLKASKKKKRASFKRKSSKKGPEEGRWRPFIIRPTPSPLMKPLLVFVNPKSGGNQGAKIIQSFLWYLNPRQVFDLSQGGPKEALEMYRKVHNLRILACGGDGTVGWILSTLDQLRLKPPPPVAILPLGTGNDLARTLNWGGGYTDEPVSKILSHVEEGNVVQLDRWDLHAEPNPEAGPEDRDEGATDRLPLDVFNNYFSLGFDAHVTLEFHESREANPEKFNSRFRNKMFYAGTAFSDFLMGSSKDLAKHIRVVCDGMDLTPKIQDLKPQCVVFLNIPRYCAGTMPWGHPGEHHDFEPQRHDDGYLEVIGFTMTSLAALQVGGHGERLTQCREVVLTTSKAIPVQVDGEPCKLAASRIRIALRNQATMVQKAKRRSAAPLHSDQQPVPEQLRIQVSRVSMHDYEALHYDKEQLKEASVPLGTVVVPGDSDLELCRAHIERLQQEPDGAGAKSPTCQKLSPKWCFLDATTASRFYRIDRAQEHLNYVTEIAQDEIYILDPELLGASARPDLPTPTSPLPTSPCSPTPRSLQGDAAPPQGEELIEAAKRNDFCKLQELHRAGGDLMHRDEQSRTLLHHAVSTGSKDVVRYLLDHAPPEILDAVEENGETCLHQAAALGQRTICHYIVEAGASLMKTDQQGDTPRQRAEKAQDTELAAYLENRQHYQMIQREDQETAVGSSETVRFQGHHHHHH

Human venous whole blood = assay: Human whole blood IFN-γ assay; assay type: cell-based; settings: human whole blood, read-out: INFg Whole Blood Normalized Agonist EC50;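 note: blood from healthy donors exposed to compound for 1 h before stimulation with anti-CD3 and anti-CD28 at 1 µg/mL each, IFN-γ quantified in supernatant by AlphaLISA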
[1] = Homo sapiens, 24 h, normalized to 3 μM reference compound with anti-CD3 plus anti-CD28 as 100% activation
[2] = normalized to 3 μM reference compound with anti-CD3 plus anti-CD28 as 100% activation
[3] = anti-CD3 plus anti-CD28, 24 hours, 3 μM reference compound = 100% activation
[4] = Homo sapiens, 24 h, anti-CD3 plus anti-CD28, 24 hours, 3 μM reference compound = 100% activation

Compound | IC50 (human DGKα; liposome (LIPGLO) assay) [nM] | IC50 (human DGKζ; liposome (LIPGLO) assay) [nM] | EC50 (Human venous whole blood; [1]) [nM] | EC50 (Human venous whole blood; [2]) [nM] | other results
C[C@@H]1CN(c2cc(=O)n(C)c3ccc(C#N)nc23)[C@@H](C)CN1C(c1ccc(F)c(F)c1)c1ccccn1 (mixture of isomers) [Example 366, 8-((2S,5R)-4-((3,4-difluorophenyl)(pyridin-2-yl)methyl)-2,5-dimethylpiperazin-1-yl)-5-methyl-6-oxo-5,6-dihydro-1,5-naphthyridine-2-carbonitrile] | 570 | 2000 | 490 | – | –
C[C@@H]1CN(c2cc(=O)n(C)c3ccc(C#N)nc23)[C@@H](C)CN1C(c1ccc(Cl)cc1)c1ccccn1 (mixture of isomers) [Example 403, 8-((2S,5R)-4-((4-chlorophenyl)(pyridin-2-yl)methyl)-2,5-dimethylpiperazin-1-yl)-5-methyl-6-oxo-5,6-dihydro-1,5-naphthyridine-2-carbonitrile] | 140 | 460 | 170 | – | –
COC(=O)C1CN(c2cc(=O)n(C)c3ccc(C#N)nc23)CCN1C(c1ccc(F)cc1)c1ccc(F)cc1OC (single isomer, unassigned) [Example 70, Methyl 4-(6-cyano-1-methyl-2-oxo-1,2-dihydro-1,5-naphthyridin-4-yl)-1-((4-fluoro-2-methoxyphenyl)(4-fluorophenyl)methyl)piperazine-2-carboxylate] | 220000 | 19000 | – | 10000 | –
CC(c1ccc(OC(F)(F)F)cc1F)N1C[C@H](C)N(c2cc(=O)n(C)c3ccc(C#N)nc23)C[C@H]1C (single isomer, unassigned) [Example 439] | – | 320 | – | 680 | –
C[C@@H]1CN(c2cc(=O)n(C)c3ccc(C#N)nc23)[C@@H](C)CN1C(c1ccc(F)cc1)c1nc(C2CCN(C)CC2)no1 (single isomer, unassigned) [Example 751] | – | – | – | – | IC50 (human DGKζ; DGKζ liposome (LIPGLO) assay): 17000 nM; EC50 (Human venous whole blood; [3]): 4500 nM
CC(c1ccc(C(F)(F)F)cc1)N1CCN(c2c(C#N)c(=O)n(C)c3ccc(C#N)nc23)C[C@H]1C (single isomer, unassigned) [Example 961] | – | – | – | – | IC50 (human DGKα; DGKα liposome (LIPGLO) assay): 1500 nM; EC50 (Human venous whole blood; [3]): 20000 nM
CC[C@H]1CN(C(c2ccc(F)cc2)c2ccccn2)[C@H](CC)CN1c1cc(=O)n(C)c2ccc(C#N)nc12 (single isomer, unassigned) [Example 1044] | – | 70 | – | 350 | –
CC(c1csc(C(F)(F)F)n1)N1C[C@H](C)N(c2cc(=O)n(C)c3ccc(C#N)nc23)C[C@H]1C (single isomer, unassigned) [Example 1274] | 590 | – | – | 3300 | –
CC(c1cc(C(C)(C)C)on1)N1C[C@H](C)N(c2cc(=O)n(C)c3ccc(C#N)nc23)C[C@H]1C (single isomer, unassigned) [Example 1284] | 760 | – | – | 2800 | –
COC[C@@H]1CN(c2cc(=O)n(C)c3ccc(C#N)nc23)[C@@H](C)CN1C(c1ccc(F)cc1)c1nc(C2CC2)cs1 (single isomer, unassigned) [Example 1395] | – | 70 | – | 190 | –
C[C@@H]1CN(c2c(F)c(=O)n(C)c3ccc(C#N)nc23)[C@@H](C)CN1C(c1ccc(Cl)cc1)c1ccc(OC(F)(F)F)cc1 (stereo partly drawn) [Example 323, 8-((2S,5R)-4-((4-chlorophenyl)(4-(trifluoromethoxy)phenyl)methyl)-2,5-dimethylpiperazin-1-yl)-7-fluoro-5-methyl-6-oxo-5,6-dihydro-1,5-naphthyridine-2-carbonitrile] | 2100 | – | 5700 | – | –
Cc1noc(C(c2ccc(F)cc2)N2C[C@H](C)N(c3cc(=O)n(C)c4ccc(C#N)nc34)C[C@H]2C)n1 (stereo partly drawn) [Example 746] | – | – | – | – | IC50 (human DGKζ; DGKζ liposome (LIPGLO) assay): 170 nM; EC50 (Human venous whole blood; [3]): 960 nM
COc1ccc(C(c2ccc(F)cc2)N2C[C@H](C)N(c3c(C#N)c(=O)n(C)c4ccc(C#N)nc34)C[C@H]2C)nc1 (stereo partly drawn) [Example 838] | – | – | – | – | IC50 (human DGKζ; DGKζ liposome (LIPGLO) assay): 2100 nM; EC50 (Human venous whole blood; [4]): 17000 nM
Cc1cccc(C(c2ccc(F)cc2)N2CCN(c3c(C#N)c(=O)n(C)c4ccc(C#N)nc34)C[C@H]2C)c1 (stereo partly drawn) [Example 916] | – | – | – | – | IC50 (human DGKζ; DGKζ liposome (LIPGLO) assay): 450 nM; EC50 (Human venous whole blood; [3]): 1900 nM
C[C@@H]1CN(c2c(C#N)c(=O)n(C)c3ccc(C#N)nc23)CCN1Cc1ccccc1OC(F)(F)F [Example 999] | – | – | – | – | IC50 (human DGKα; DGKα liposome (LIPGLO) assay): 270 nM; EC50 (Human venous whole blood; [4]): 17000 nM
CC[C@@H]1CN(c2cc(=O)n(C)c3ccc(C#N)nc23)[C@@H](C)CN1C(c1ccc(Cl)cc1)c1ccc(F)cn1 (stereo partly drawn) [Example 1110] | – | 160 | – | 1300 | –
CC(c1cc(OC(F)(F)F)ccc1F)N1C[C@H](C)N(c2cc(=O)n(C)c3ccc(C#N)nc23)C[C@H]1C (stereo partly drawn) [Example 1202] | 2200 | – | – | 1300 | –
CC[C@@H]1CN(c2cc(=O)n(C)c3ccc(C#N)nc23)[C@@H](C)CN1Cc1ccc(OC(F)(F)F)cc1F [Example 1347] | – | 170 | 730 | – | –
CC(c1ccc(OC(F)(F)F)cc1)N1C[C@H](C)N(c2cc(=O)n(C)c3ccc(C#N)nc23)C[C@H]1CN(C)C (stereo partly drawn) [Example 1413, 8-((2S,5R)-5-((dimethylamino)methyl)-2-methyl-4-(1-(4-(trifluoromethoxy)phenyl)ethyl)piperazin-1-yl)-5-methyl-6-oxo-5,6-dihydro-1,5-naphthyridine-2-carbonitrile] | – | 1800 | 1400 | – | –
Cc1oc(-c2cccc(F)c2)nc1CN1C[C@H](C)N(c2cc(=O)n(C)c3ccc(C#N)nc23)C[C@H]1C [Example 1429] | 48000 | – | – | 20000 | –
Cc1oc(-c2cccc(F)c2)nc1CN1C[C@H](C)N(c2cc(=O)n(C)c3ccc(C#N)nc23)C[C@H]1C [Example 1430] | 21000 | – | – | 7000 | –

Further lines, with some results ahead:

IC50 (human DGKα; liposome (LIPGLO) assay) [nM] | IC50 (human DGKζ; liposome (LIPGLO) assay) [nM] | Compound | EC50 (Human venous whole blood; [1]) [nM] | EC50 (Human venous whole blood; [2]) [nM] | other results
– | 190 | CC(c1ccc(C(F)(F)F)cn1)N1C[C@H](C)N(c2cc(=O)n(C)c3ccc(C#N)nc23)C[C@H]1C (single isomer, unassigned) [Example 642] | 3300 | – | –
290000 | – | C[C@@H]1CN(c2cc(=O)n(C)c3ccc(C#N)nc23)[C@@H](C)CN1C(c1ccc(F)cc1)c1ccccc1P(C)(C)=O (single isomer, unassigned) [Example 1288] | 8800 | – | –
– | 220000 | CC(c1ccc(P(C)(C)=O)cc1)N1C[C@H](C)N(c2c(C#N)c(=O)n(C)c3ccc(C#N)nc23)C[C@H]1C (single isomer, unassigned) [Example 1294] | 20000 | – | –
– | 6500 | C[C@@H]1CN(c2c(F)c(=O)n(C)c3ccc(C#N)nc23)[C@@H](C)CN1C(c1ccc(F)cc1)c1ccc(C(F)(F)F)cc1 (stereo partly drawn) [Example 326, 7-fluoro-8-((2S,5R)-4-((4-fluorophenyl)(4-(trifluoromethyl)phenyl)methyl)-2,5-dimethylpiperazin-1-yl)-5-methyl-6-oxo-5,6-dihydro-1,5-naphthyridine-2-carbonitrile] | – | 20000 | –
– | 160 | CC(c1ccc(Cl)cc1F)N1C[C@H](C)N(c2cc(=O)n(C)c3ccc(C#N)nc23)C[C@H]1C (stereo partly drawn) [Example 1230] | 100 | – | –
– | 3700 | C[C@@H]1CN(c2cc(=O)n(C)c3ccc(C#N)nc23)[C@@H](C)CN1C(c1ccc(F)cc1)c1ccccc1P(C)(C)=O (stereo partly drawn) [Example 1287, 8-((2S,5R)-4-((2-(dimethylphosphoryl)phenyl)(4-fluorophenyl)methyl)-2,5-dimethylpiperazin-1-yl)-5-methyl-6-oxo-5,6-dihydro-1,5-naphthyridine-2-carbonitrile] | 8400 | – | –
